Legend:
sGC α1/β1 heterodimer = molecular target: T1, sGC α1/β1 heterodimer (Homo sapiens, UniProt Q02108+Q02153); assay: Cell-Based sGC Functional Assay (CASA Assay), cGMP by HTRF in CHO-K1/sGC cells; details: for Emax: CHO-K1, percent activation relative to maximum cGMP production of Compound A (= 100%), read-out: % Act.; for EC50: cGMP production, 1 hr at 37° C., 4P fit, presence or absence of 1 μM DETA-NO not given, read-out: IP (nM) (inflection point)
T1 construct: expressed in transfected cells; host or cells: CHO-K1 (clone #7, CHO-K1/sGC)
T1 sequence (Q02108 1-690): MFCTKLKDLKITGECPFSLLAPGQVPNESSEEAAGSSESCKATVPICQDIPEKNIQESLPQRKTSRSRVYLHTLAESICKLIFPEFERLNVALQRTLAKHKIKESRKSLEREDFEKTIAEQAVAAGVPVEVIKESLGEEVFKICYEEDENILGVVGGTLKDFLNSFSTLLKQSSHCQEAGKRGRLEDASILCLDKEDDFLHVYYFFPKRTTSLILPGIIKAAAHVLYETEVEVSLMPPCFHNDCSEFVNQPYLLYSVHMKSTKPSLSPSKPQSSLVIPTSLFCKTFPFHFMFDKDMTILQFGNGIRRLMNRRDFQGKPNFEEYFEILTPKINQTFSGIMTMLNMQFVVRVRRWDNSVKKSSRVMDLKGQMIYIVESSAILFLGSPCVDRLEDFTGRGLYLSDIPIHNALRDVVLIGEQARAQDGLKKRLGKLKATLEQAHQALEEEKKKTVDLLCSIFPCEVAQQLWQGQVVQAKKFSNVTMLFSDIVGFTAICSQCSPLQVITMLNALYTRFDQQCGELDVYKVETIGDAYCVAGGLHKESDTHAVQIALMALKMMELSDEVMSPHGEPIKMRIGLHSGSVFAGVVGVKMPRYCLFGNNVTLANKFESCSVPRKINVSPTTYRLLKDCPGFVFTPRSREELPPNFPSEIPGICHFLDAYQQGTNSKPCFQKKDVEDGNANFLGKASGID
T1 sequence (Q02153 1-619): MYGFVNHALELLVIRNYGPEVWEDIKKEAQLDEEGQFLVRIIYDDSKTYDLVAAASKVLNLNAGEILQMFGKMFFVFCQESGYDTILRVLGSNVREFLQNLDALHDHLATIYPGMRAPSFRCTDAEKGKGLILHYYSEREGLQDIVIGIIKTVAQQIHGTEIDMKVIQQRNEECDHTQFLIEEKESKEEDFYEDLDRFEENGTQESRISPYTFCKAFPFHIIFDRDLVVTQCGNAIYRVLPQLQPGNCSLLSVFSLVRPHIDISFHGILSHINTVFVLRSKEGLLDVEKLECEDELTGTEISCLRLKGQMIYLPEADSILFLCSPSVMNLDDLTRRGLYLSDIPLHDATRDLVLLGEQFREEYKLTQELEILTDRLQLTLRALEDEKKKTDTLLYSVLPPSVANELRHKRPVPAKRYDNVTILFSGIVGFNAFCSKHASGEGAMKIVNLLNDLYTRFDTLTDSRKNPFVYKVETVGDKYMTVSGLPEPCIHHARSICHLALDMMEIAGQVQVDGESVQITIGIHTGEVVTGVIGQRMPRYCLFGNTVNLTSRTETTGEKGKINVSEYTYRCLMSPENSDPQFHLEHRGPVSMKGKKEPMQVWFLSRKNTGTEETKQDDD
Outline: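 CHO-K1 cells stably expressing human sGC α1/β1, in EBSS buffer with 5 mM MgCl2, 10 mM HEPES, 0.05% BSA and 0.5 mM IBMX, incubated with compound (2.5% DMSO) ± 1 μM DETA-NO, 1 h, 37 °C. Intracellular cGMP read by HTRF; activity as % of reference activator maximum, IP from 4-parameter fit.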

[1] = tested on: Spontaneously hypertensive rats (SHR); assay: Acute Efficacy in Spontaneously Hypertensive Rats (SHR), telemetry blood pressure; type: in vivo, rat; details: SHR male
Outline: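 Male SHR with aortic telemetry, conscious and freely moving, recovered 14 days post-surgery. Single oral gavage; vehicle 10% transcutol/20% Cremophor/70% water dosed the day before as baseline. Hourly blood pressure averages minus baseline; maximum peak systolic decrease reported at a stated oral dose (mpk).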

| Emax (sGC α1/β1 heterodimer) [%] | EC50 (sGC α1/β1 heterodimer) [nM] | Structure (SMILES) | Cat. (maximum peak decrease of systolic blood pressure (SBP) in SHR) ([1]; single oral dose 1.0 mpk P.O.) | Cat. (maximum peak decrease of systolic blood pressure (SBP) in SHR) ([1]; single oral dose 0.3 mpk P.O.) | Cat. (maximum peak decrease of systolic blood pressure (SBP) in SHR) ([1]; single oral dose 3.0 mpk P.O.) |
| --- | --- | --- | --- | --- | --- |
| 63 | 37 | CCCCc1nc(-c2ncc3c(n2)NC(=O)C3(C)c2ccc(F)cn2)cn2ccnc12 (stereo not drawn) [Example 82B, 2-(8-butylimidazo[1,2-a]pyrazin-6-yl)-5-(5-fluoropyridin-2-yl)-5-methyl-5H-pyrrolo[2,3-d]pyrimidin-6(7H)-one] | C (Category C=SBP in SHRs>40 mmHg) |  |  |
| 104 | 54 | CC1(c2ccc(Cl)cn2)C(=O)Nc2nc(-c3cn4ccnc4c(CCC(F)(F)C(F)(F)F)n3)ncc21 (stereo not drawn) [Example 36A, 5-(5-Chloropyridin-2-yl)-5-methyl-2-(8-(3,3,4,4,4-pentafluorobutyl)imidazo[1,2-a]pyrazin-6-yl)-5H-pyrrolo[2,3-d]pyrimidin-6(7H)-one] |  | A (Category A=SBP in SHRs<20 mmHg) |  |
| 89 | 436 | CC1(c2ccc(F)cc2)C(=O)Nc2nc(-c3cn4ccnc4c(CCCC(F)(F)F)n3)nc(O)c21 (stereo not drawn) [Example 30A, 5-(4-fluorophenyl)-4-hydroxy-5-methyl-2-(8-(4,4,4-trifluorobutyl)imidazo[1,2-a]pyrazin-6-yl)-5H-pyrrolo[2,3-d]pyrimidin-6(7H)-one] | B (Category B=SBP in SHRs 20-40 mmHg) |  |  |
| 91 | 68 | CC1(c2ccc(Cl)cn2)C(=O)Nc2nc(-c3cn4ccnc4c(CCCC(F)(F)F)n3)ncc21 (stereo not drawn) [Example 59A, 5-(5-chloropyridin-2-yl)-5-methyl-2-(8-(4,4,4-trifluorobutyl)imidazo[1,2-a]pyrazin-6-yl)-5H-pyrrolo[2,3-d]pyrimidin-6(7H)-one] | B (Category B=SBP in SHRs 20-40 mmHg) |  |  |
| 92 | 225 | CC1(c2ccc(F)cc2)C(=O)Nc2nc(-c3cn4ccnc4c(CC4CCC4)n3)nc(O)c21 (stereo not drawn) [Example 29A, 2-(8-(cyclobutylmethyl)imidazo [1,2-a]pyrazin-6-yl)-5-(4-fluorophenyl)-4-hydroxy-5-methyl-5H-pyrrolo[2,3-d]pyrimidin-6(7H)-one] |  |  | B (Category B=SBP in SHRs 20-40 mmHg) |
| 155 | 791 | O=C1Nc2nc(-c3cn4ccnc4c(CCCC(F)(F)F)n3)ncc2C1(c1ccc(OC(F)(F)F)cc1)C1CC1 (stereo not drawn) [Example 52A, 5-cyclopropyl-2-(8-(4,4,4-trifluorobutyl)imidazo[1,2-a]pyrazin-6-yl)-5-(4-(trifluoromethoxy)phenyl)-5H-pyrrolo[2,3-d]pyrimidin-6(7H)-one] |  |  | A (Category A=SBP in SHRs<20 mmHg) |
| 155 | 63 | O=C1Nc2nc(-c3cn4ccnc4c(CCCC(F)(F)F)n3)ncc2C1(c1ccc(Cl)cc1)C1CC1 (stereo not drawn) [Example 50B, 5-(4-chlorophenyl)-5-cyclopropyl-2-(8-(4,4,4-trifluorobutyl)imidazo[1,2-a]pyrazin-6-yl)-5H-pyrrolo[2,3-d]pyrimidin-6(7H)-one] | B (Category B=SBP in SHRs 20-40 mmHg) |  |  |
| 118 | 253 | CC1(c2ccc(F)cn2)C(=O)Nc2nc(-c3cn4ccnc4c(Cc4ccc(F)cc4)n3)nc(O)c21 (stereo not drawn) [Example 6B, 2-(8-(4-fluorobenzyl)imidazo[1,2-a]pyrazin-6-yl)-5-(5-fluoropyridin-2-yl)-4-hydroxy-5-methyl-5H-pyrrolo[2,3-d]pyrimidin-6(7H)-one] | C (Category C=SBP in SHRs>40 mmHg) |  |  |
| 157 | 24 | CCCCc1nc(-c2ncc3c(n2)NC(=O)C3(c2ccc(Cl)cc2)C2CC2)cn2ccnc12 (stereo not drawn) [Example 49B, 2-(8-butylimidazo[1,2-a]pyrazin-6-yl)-5-(4-chlorophenyl)-5-cyclopropyl-5H-pyrrolo[2,3-d]pyrimidin-6(7H)-one] | B (Category B=SBP in SHRs 20-40 mmHg) |  |  |
